The values below come from article PMC6273687, “Design, Synthesis and Biological Evaluation of Novel Primaquine-Cinnamic Acid Conjugates of the Amide and Acylsemicarbazide Type” (Molecules, 2016).

One series deals with colon carcinoma HCT 116. Nature of the series: Growth inhibition of tumor cell lines in vitro (reference drugs). The following applies: colon carcinoma HCT 116 (footnote b, printed in SW 620 column). It is filed as cell-based.
In series [1] the test system is HeLa cervical carcinoma cell line. Nature of the series: Growth inhibition of tumor cell lines in vitro (MTT / cell counting). It is filed as cell-based. The following applies: Homo sapiens. The procedure:
(§1) The experiments were carried out on a murine lymphocytic leukemia cell line (L1210) and five human tumor cell lines: CEM, HeLa, NCI-H460, SW 620 and MCF-7. The cells were cultured as monolayers and maintained in Dulbecco′s modified Eagle medium (DMEM) supplemented with 10% fetal bovine serum (FBS), 2 mM L-glutamine, 100 U/mL penicillin and 100 μg/mL streptomycin in a humidified atmosphere with 5% CO2 at 37 °C.
(§2) The growth inhibition activity of the compounds was assessed as described previously. The cell lines were inoculated onto a series of standard 96-well microtiter plates on day 0, at 1.5 × 10^4 cells/mL (SW 620, H460) to 2.5 × 10^4 cells/mL (MCF-7, CEM and L1210), depending on the growth of the tumor cell line. Test agents were then added in ten-fold dilutions (10^−8 to 10^−4 M) and the cell cultures were then incubated for 3–4 days with 5% CO2 at 37 °C. Working dilutions of the compounds were freshly prepared on the day of testing.
(§3) After 3 (MCF-7, SW 620, NCI-H460) or 4 days (CEM, L1210), the cell growth rate was evaluated first light microscopically, then by viable cell counting and/or by performing the MTT assay, which detects dehydrogenase activity in live, not dead, cells. The absorbance (A) was measured on a microplate reader at 570 nm. The absorbance is directly proportional to the number of living, metabolically active cells. […] If however, all of the tested concentrations produce PGs exceeding the respective reference level of effect (e.g., PG value of 50), then the highest tested concentration is assigned as the default value, which is preceded by a “>” sign. Minimum two individual experiments were carried out and each test point was performed in quadruplicate.

Series [2] relates to L1210 murine lymphocytic leukemia cell line. The description is as above. Type of series: cell-based. Conditions: Mus musculus, 96 h; L1210, 4 days. The procedure: as §1, §2, §3
Series [3] relates to CEM acute lymphoblastic leukemia cell line. The description is as above. It is filed as cell-based. Conditions: Homo sapiens, 96 h, 4 days. The procedure:
as §1, §2, §3

Series [4] relates to NCI-H460 lung carcinoma cell line. The series is described as above. It is filed as cell-based, human. Conditions: NCI-H460, 3 days. The protocol:
as §1, §2, §3

For series [5], the target named is T1, soybean lipoxygenase (LOX) (Glycine max, UniProt P08170).
T1 construct: purchased Sigma-Aldrich
T1 sequence (P08170 1-839): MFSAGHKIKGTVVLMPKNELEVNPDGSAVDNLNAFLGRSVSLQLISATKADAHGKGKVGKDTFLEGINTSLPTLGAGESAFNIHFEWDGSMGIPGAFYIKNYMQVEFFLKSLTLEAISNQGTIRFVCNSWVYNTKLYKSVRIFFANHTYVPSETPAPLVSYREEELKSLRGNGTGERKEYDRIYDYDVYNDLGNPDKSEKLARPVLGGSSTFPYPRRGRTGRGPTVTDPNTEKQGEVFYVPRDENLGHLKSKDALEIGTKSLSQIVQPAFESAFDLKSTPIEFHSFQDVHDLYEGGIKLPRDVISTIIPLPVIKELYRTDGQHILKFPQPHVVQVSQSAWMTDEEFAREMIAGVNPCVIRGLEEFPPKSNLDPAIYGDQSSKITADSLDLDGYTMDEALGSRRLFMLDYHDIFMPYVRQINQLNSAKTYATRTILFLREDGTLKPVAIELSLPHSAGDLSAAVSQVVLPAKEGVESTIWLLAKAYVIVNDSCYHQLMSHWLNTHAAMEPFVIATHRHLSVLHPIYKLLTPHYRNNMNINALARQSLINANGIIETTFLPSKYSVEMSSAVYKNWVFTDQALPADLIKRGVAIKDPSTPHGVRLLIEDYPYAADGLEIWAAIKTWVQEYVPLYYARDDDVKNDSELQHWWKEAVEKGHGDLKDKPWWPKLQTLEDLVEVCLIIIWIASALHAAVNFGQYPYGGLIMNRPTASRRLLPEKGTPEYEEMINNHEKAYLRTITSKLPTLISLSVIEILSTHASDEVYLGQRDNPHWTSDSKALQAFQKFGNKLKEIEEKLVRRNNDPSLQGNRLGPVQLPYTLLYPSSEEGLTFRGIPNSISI
Nature of the series: LOX inhibition study in vitro. Type of series: biochemical. Conditions: values in parentheses in Table 3. The procedure: LOX inhibitory assay in vitro was accomplished as described previously. The test compounds (stock solutions 10 mM in DMSO) were incubated at room temperature with sodium linoleate (c = 0.1 mM) and 0.2 mL of LOX enzyme solution (1/9 × 10^−4 m/V in saline). The conversion of sodium linoleate to 13-hydroperoxylinoleic acid was measured at 234 nm and compared with the reference inhibitor. Several concentrations were used for the IC50 determination.

Series [6] can be described thus: Interaction with the stable radical DPPH (reducing ability). The procedure: To a solution of DPPH in absolute ethanol the appropriate volume of the compounds (50 or 100 µM final concentrations) dissolved in DMSO was added. The absorbance was recorded at 517 nm after 20 and 60 min at room temperature. The experiments were repeated at least in triplicate and the standard deviation of absorbance was less than 10% of the mean. NDGA was used under the same experimental conditions as a reference compound.
(The DPPH test is a chemical assay of radical scavenging.)

For another series, the system named is HEL cells. Nature of the series: Cytotoxicity assay, alteration of HEL cell morphology (MCC). Type of series: cell-based, human. The following applies: 3 days. The protocol:
Cytotoxicity measurements were based on the inhibition of HEL cell growth. Cells were seeded at 5 × 10^3 cells/well into 96-well microtiter plates. Then, medium containing different concentrations of the test compounds was added. After 3 days of incubation at 37 °C, the alteration of morphology of the cell cultures was recorded light microscopically. Cytotoxicity was expressed as MCC.

Series [7] can be described thus: Inhibition of linoleic acid peroxidation (AAPH-induced). Conditions: 5 × 10^−5 M. The procedure:
For initiating the lipid peroxidation free radical AAPH was used. Final solution in the UV cuvette consisted of 10 μL linoleate sodium solution (c = 16 mM), 0.93 mL phosphate buffer (c = 0.05 M), pH 7.4, thermostated at 37 °C. 50 μL AAPH solution (c = 40 mM) and 10 μL of the tested compounds were added. The experiment was performed at 37 °C under air. The oxidation of linoleic acid sodium salt was monitored at 234 nm. The assays were repeated at least in triplicate and the standard deviation of absorbance was less than 10% of the mean. Trolox was used under the same experimental conditions as a reference compound.

In series [8] the test system is SW 620 colon carcinoma cell line. Nature of the series: Growth inhibition of tumor cell lines in vitro (MTT / cell counting). Type of series: cell-based. The following applies: Homo sapiens, 72 h; SW 620, 3 days. The procedure:
as §1, §2, §3

The subject of series [9] is MCF-7 breast carcinoma cell line. The series is described as above. The following applies: for IC50: MCF-7, 3 days. Type of series: cell-based, human. The protocol:
as §1, §2, §3

For the next series, the system named is human coronavirus (229E). Nature of the series: microbe, parasite or virus in culture. Type of series: cell-based. Conditions: read-out: EC50 (concentration required to reduce virus-induced cytopathogenicity by 50%), HEL cell cultures.

In the case of `O=c1[nH]cc(F)c(=O)[nH]1` [5-FU, 5-fluorouracil, reference compound], the 50% inhibitory concentration (IC50) (usually the point on the concentration scale where inhibition reaches its midpoint) with colon carcinoma HCT 116 (Homo sapiens) stood at 4 ± 0.7 µM; in [1] it was 0.54 ± 0.1 µM; in series [2], 0.5 ± 0.2 µM; in series [3], 18 ± 5 µM; in series [4] (Homo sapiens, 72 h), 3 ± 0.3 µM.
Regarding `COc1ccc(/C=C/C(=O)NNC(=O)NCCCC(C)Nc2cc(OC)cc3cccnc23)cc1` (stereo not drawn) [7c, (E)-1-(3-(4-Methoxyphenyl)acryloyl)-4-(4-(6-methoxyquinolin-8-ylamino)pentyl)semicarbazide], the IC50 in series [5] was 50 µM; in series [1] it was 2.4 ± 0.2 µM; in [8], more than 100 µM; in series [2] it was 1.7 ± 0.4 µM; in [3] it was 1.3 ± 0.7 µM; in series [9] (Homo sapiens, MCF7, 72 h) it was 0.4 ± 0.2 µM. Also, the IC50 in series [4] (Homo sapiens, 72 h) is more than 100 µM. For the same molecule, the “DPPH-reducing ability RA (%)” value is 39% in [6] (1 × 10^−4 M, 20 min); 100% in [6] (1 × 10^−4 M, 60 min); 54% in series [6] (5 × 10^−5 M, 20 min); 100% in series [6] (5 × 10^−5 M, 60 min). In the series on HEL cells, the “MCC (minimum cytotoxic concentration)” value was “around 20 μΜ”. Also, the “LP Inhibition (%)” value in [7] is reported as 89%.
For `COc1cc(NC(C)CCCNC(=O)NNC(=O)/C=C/c2ccc3c(c2)OCO3)c2ncccc2c1` (stereo not drawn) [7f, (E)-1-(3-(Benzo[d][1,3]dioxo-5-yl)acryloyl)-4-(4-(6-methoxyquinolin-8-ylamino)pentyl)semicarbazide], the IC50 stood at 55 µM in series [5]; 31 µM in [1]; 17 ± 5 µM in [8]; 4.8 ± 0.2 µM in series [2]; 7.4 ± 2.1 µM in [3]; 0.6 ± 0.3 µM in series [9] (Homo sapiens, MCF7, 72 h). The concentration for half-maximal inhibition (IC50) in series [4] (Homo sapiens, 72 h) amounted to 27 ± 3 µM. Besides, the “DPPH-reducing ability RA (%)” value is reported as 74% in series [6] (1 × 10^−4 M, 20 min); 100% in [6] (1 × 10^−4 M, 60 min); 47% in series [6] (5 × 10^−5 M, 20 min); 100% in series [6] (5 × 10^−5 M, 60 min). Besides, in the series with human coronavirus (229E), the EC50 is 12.5 µM. For the same molecule, in series [7], the “LP Inhibition (%)” value is given as 88%.
For `COc1cc(NC(C)CCCNC(=O)NNC(=O)/C=C/c2cccc(C(F)(F)F)c2)c2ncccc2c1` (stereo not drawn) [7i, (E)-4-(4-(6-Methoxyquinolin-8-ylamino)pentyl)-1-(3-(3-(trifluoromethyl)phenyl)acryloyl)semicarbazide], the half-inhibitory concentration (IC50) came out at 42.5 µM in series [5]; 10 ± 1 µM in series [1]; 16 ± 5 µM in series [8]; 9.4 ± 4.8 µM in series [2]; 10 ± 1 µM in series [3]; 2.3 ± 0.2 µM in [9] (Homo sapiens, MCF7, 72 h). Also, half-maximal inhibition in series [4] (Homo sapiens, 72 h) (IC50) was put at 18 ± 3 µM. Also, the “DPPH-reducing ability RA (%)” value came out at 96% in series [6] (1 × 10^−4 M, 20 min); 73% in series [6] (1 × 10^−4 M, 60 min); 71% in [6] (5 × 10^−5 M, 20 min); 100% in [6] (5 × 10^−5 M, 60 min). The EC50 in the series with human coronavirus (229E) amounted to 7.9 µM. In series [7], the “LP Inhibition (%)” value was 84%.
`COc1cc(NC(C)CCCNC(=O)NNC(=O)/C=C/c2ccc(C(F)(F)F)cc2)c2ncccc2c1` (stereo not drawn) [7j, (E)-4-(4-(6-Methoxyquinolin-8-ylamino)pentyl)-1-(3-(4-(trifluoromethyl)phenyl)acryloyl)semicarbazide]: the IC50 in series [5] came out at 35 µM; in series [1], 28 ± 12 µM; in [8], 40 ± 5 µM; in series [2], 27 µM; in series [3], 9.4 ± 5.6 µM; in [9] (Homo sapiens, MCF7, 72 h), 0.03 ± 0.02 µM. In series [4] (Homo sapiens, 72 h), the IC50 is 34 ± 2 µM. The “DPPH-reducing ability RA (%)” value in series [6] (1 × 10^−4 M, 20 min) stood at 100%; in [6] (1 × 10^−4 M, 60 min), 95%; in series [6] (5 × 10^−5 M, 20 min), 42%; in [6] (5 × 10^−5 M, 60 min), 79%. The EC50 in the series on human coronavirus (229E) turned out to be 9.5 µM. For the same molecule, in series [7], the “LP Inhibition (%)” value is 50%. For the same molecule, the “fold higher activity than PQ” value in [9] (MCF-7) amounted to 900 fold. Moreover, in [9] (MCF-7), the “fold higher activity than the anticancer reference drugs” value is listed as 100-to 500 fold.
In the case of `COc1cc(NC(C)CCCNC(=O)NNC(=O)/C=C/c2cc(C(F)(F)F)cc(C(F)(F)F)c2)c2ncccc2c1` (stereo not drawn) [7k, (E)-1-(3-(3,5-Bis(trifluoromethyl)phenyl)acryloyl)-4-(4-(6-methoxyquinolin-8-ylamino)pentyl)semicarbazide], the IC50 is 67.5 µM in series [5]; 30 ± 23 µM in [1]; 32 ± 4 µM in series [8]; 30 ± 17 µM in [2]; 17 ± 5 µM in series [3]; 3.2 ± 0.8 µM in series [9] (Homo sapiens, MCF7, 72 h). Further, in series [4] (Homo sapiens, 72 h), the IC50 was 48 ± 2 µM. The “DPPH-reducing ability RA (%)” value in series [6] (1 × 10^−4 M, 20 min) came out at 98%; in series [6] (1 × 10^−4 M, 60 min) it was 97%; in series [6] (5 × 10^−5 M, 20 min), 72%; in [6] (5 × 10^−5 M, 60 min) it was 100%. Further, the EC50 in the series with human coronavirus (229E) stood at 8.4 µM. In addition, the “LP Inhibition (%)” value in [7] was 55%.
As to `N.N.[Cl][Pt][Cl]` [CIS, cisplatin, reference compound], the IC50 stood at 7 ± 2 µM in the series with colon carcinoma HCT 116, 10 ± 1 µM in [9] and 1 ± 0.1 µM in series [4].
As for `COc1cc(NC(C)CCCN)c2ncccc2c1` (stereo not drawn) [PQ, primaquine], the IC50 with colon carcinoma HCT 116 (Homo sapiens) was determined as 20 ± 6 µM; in series [9] (Homo sapiens, MCF7, 72 h), 28 ± 10 µM; in series [4] (Homo sapiens, 72 h), 30 ± 7 µM.
